Tests used:
Details in all cases: growth mode: biofilm, 24 h; exposure time: 24 h
colistin [1] = compound: T1, CCC(C)CCCC(=O)N[C@@H](CCN)C(=O)N[C@H](C(=O)N[C@@H](CCN)C(=O)N[C@H]1CCNC(=O)[C@H]([C@@H](C)O)NC(=O)[C@H](CCN)NC(=O)[C@H](CCN)NC(=O)[C@H](CC(C)C)NC(=O)[C@@H](CC(C)C)NC(=O)[C@H](CCN)NC1=O)[C@@H](C)O [colistin]; assay: minimum concentration of killing, 4-log CFU reduction of biofilm (MCK99.99); higher = more biofilm tolerance
Protocol: (§1)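 Clinical P. aeruginosa isolates were grown as static biofilms for 24 h at 37 °C in LB in half-area 96-well plates, then exposed for 24 h to colistin at 1, 4, 16, 64, 256 or […]. Surviving CFU were counted by spotting serial dilutions. MCK is the lowest tested concentration giving the stated log reduction in CFU versus an untreated control; '>1024' means the reduction was not reached at the top dose, and 1 is the lowest dose tested (≤1).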

colistin [2] = compound: T1, colistin; assay: minimum concentration eradicating biofilm below detection limit (MCK-E); higher = more biofilm tolerance
Protocol: as §1

tobramycin [3] = compound: T2, NC[C@H]1O[C@H](O[C@H]2[C@H](O)[C@@H](O[C@H]3O[C@H](CO)[C@@H](O)[C@H](N)[C@H]3O)[C@H](N)C[C@@H]2N)[C@H](N)C[C@@H]1O [tobramycin]; assay: as above
Protocol: as §1, with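 “tobramycin” for “colistin”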

tobramycin [4] = compound: T2, tobramycin; assay: minimum concentration of killing, 1-log CFU reduction of biofilm (MCK90); higher = more biofilm tolerance
Protocol: as §1, with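 “tobramycin” for “colistin”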

tobramycin [5] = compound: T2, tobramycin; assay: minimum concentration of killing, 4-log CFU reduction of biofilm (MCK99.99); higher = more biofilm tolerance
Protocol: as §1, with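 “tobramycin” for “colistin”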

tobramycin [6] = compound: T2, tobramycin; assay: minimum concentration of killing, 2-log CFU reduction of biofilm (MCK99); higher = more biofilm tolerance
Protocol: as §1, with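 “tobramycin” for “colistin”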

colistin [7] = compound: T1, colistin; assay: minimum concentration of killing, 1-log CFU reduction of biofilm (MCK90); higher = more biofilm tolerance
Protocol: as §1

colistin [8] = compound: T1, colistin; assay: minimum concentration of killing, 2-log CFU reduction of biofilm (MCK99); higher = more biofilm tolerance
Protocol: as §1

Pseudomonas aeruginosa clinical isolate CH2522
minimum concentration of killing (colistin [1]): 256 µg/mL | minimum concentration eradicating biofilm below detection limit (colistin [2]): 256 µg/mL | minimum concentration eradicating biofilm below detection limit (tobramycin [3]): 1020 µg/mL | minimum concentration of killing (tobramycin [4]): 16 µg/mL | minimum concentration of killing (tobramycin [5]): 1020 µg/mL | minimum concentration of killing (tobramycin [6]): 16 µg/mL | minimum concentration of killing (colistin [7]): 64 µg/mL | minimum concentration of killing (colistin [8]): 64 µg/mL

Pseudomonas aeruginosa clinical isolate CH2527
minimum concentration of killing (colistin [1]): 256 µg/mL | minimum concentration eradicating biofilm below detection limit (colistin [2]): 256 µg/mL | minimum concentration eradicating biofilm below detection limit (tobramycin [3]): 1020 µg/mL | minimum concentration of killing (tobramycin [4]): 64 µg/mL | minimum concentration of killing (tobramycin [5]): 256 µg/mL | minimum concentration of killing (tobramycin [6]): 64 µg/mL | minimum concentration of killing (colistin [7]): 256 µg/mL | minimum concentration of killing (colistin [8]): 256 µg/mL

Pseudomonas aeruginosa clinical isolate CH2582
minimum concentration of killing (colistin [1]): 256 µg/mL | minimum concentration eradicating biofilm below detection limit (colistin [2]): 1020 µg/mL | minimum concentration eradicating biofilm below detection limit (tobramycin [3]): 64 µg/mL | minimum concentration of killing (tobramycin [4]): ≤ 1 µg/mL | minimum concentration of killing (tobramycin [5]): 64 µg/mL | minimum concentration of killing (tobramycin [6]): 4 µg/mL | minimum concentration of killing (colistin [7]): ≤ 1 µg/mL | minimum concentration of killing (colistin [8]): 256 µg/mL

Pseudomonas aeruginosa clinical isolate CH2597
minimum concentration of killing (colistin [1]): 256 µg/mL | minimum concentration eradicating biofilm below detection limit (colistin [2]): 256 µg/mL | minimum concentration eradicating biofilm below detection limit (tobramycin [3]): 256 µg/mL | minimum concentration of killing (tobramycin [4]): 256 µg/mL | minimum concentration of killing (tobramycin [5]): 256 µg/mL | minimum concentration of killing (tobramycin [6]): 256 µg/mL | minimum concentration of killing (colistin [7]): 256 µg/mL | minimum concentration of killing (colistin [8]): 256 µg/mL

Pseudomonas aeruginosa clinical isolate CH2598
minimum concentration of killing (colistin [1]): 256 µg/mL | minimum concentration eradicating biofilm below detection limit (colistin [2]): 256 µg/mL | minimum concentration eradicating biofilm below detection limit (tobramycin [3]): 256 µg/mL | minimum concentration of killing (tobramycin [4]): 4 µg/mL | minimum concentration of killing (tobramycin [5]): 256 µg/mL | minimum concentration of killing (tobramycin [6]): 16 µg/mL | minimum concentration of killing (colistin [7]): 256 µg/mL | minimum concentration of killing (colistin [8]): 256 µg/mL

Pseudomonas aeruginosa clinical isolate CH2658
minimum concentration of killing (colistin [1]): 256 µg/mL | minimum concentration eradicating biofilm below detection limit (colistin [2]): 256 µg/mL | minimum concentration eradicating biofilm below detection limit (tobramycin [3]): 256 µg/mL | minimum concentration of killing (tobramycin [4]): 4 µg/mL | minimum concentration of killing (tobramycin [5]): 64 µg/mL | minimum concentration of killing (tobramycin [6]): 16 µg/mL | minimum concentration of killing (colistin [7]): 64 µg/mL | minimum concentration of killing (colistin [8]): 256 µg/mL

Pseudomonas aeruginosa clinical isolate CH5531
minimum concentration eradicating biofilm below detection limit (tobramycin [3]): 1020 µg/mL | minimum concentration of killing (tobramycin [4]): 16 µg/mL | minimum concentration of killing (tobramycin [5]): 256 µg/mL | minimum concentration of killing (tobramycin [6]): 256 µg/mL

Pseudomonas aeruginosa clinical isolate CH5548
minimum concentration eradicating biofilm below detection limit (tobramycin [3]): 64 µg/mL | minimum concentration of killing (tobramycin [4]): 4 µg/mL | minimum concentration of killing (tobramycin [5]): 16 µg/mL | minimum concentration of killing (tobramycin [6]): 4 µg/mL

Pseudomonas aeruginosa clinical isolate CH5591
minimum concentration eradicating biofilm below detection limit (tobramycin [3]): > 1020 µg/mL | minimum concentration of killing (tobramycin [4]): 1020 µg/mL | minimum concentration of killing (tobramycin [5]): > 1020 µg/mL | minimum concentration of killing (tobramycin [6]): 1020 µg/mL

Pseudomonas aeruginosa clinical isolate ESP057
minimum concentration of killing (colistin [1]): 256 µg/mL | minimum concentration eradicating biofilm below detection limit (colistin [2]): 256 µg/mL | minimum concentration eradicating biofilm below detection limit (tobramycin [3]): 256 µg/mL | minimum concentration of killing (tobramycin [4]): ≤ 1 µg/mL | minimum concentration of killing (tobramycin [5]): 256 µg/mL | minimum concentration of killing (colistin [7]): 256 µg/mL | minimum concentration of killing (colistin [8]): 256 µg/mL

Pseudomonas aeruginosa clinical isolate F1659
minimum concentration of killing (colistin [1]): 64 µg/mL | minimum concentration eradicating biofilm below detection limit (tobramycin [3]): 1020 µg/mL | minimum concentration of killing (tobramycin [4]): 4 µg/mL | minimum concentration of killing (tobramycin [5]): 256 µg/mL | minimum concentration of killing (tobramycin [6]): 16 µg/mL | minimum concentration of killing (colistin [7]): 16 µg/mL | minimum concentration of killing (colistin [8]): 64 µg/mL

Pseudomonas aeruginosa clinical isolate F1689
minimum concentration of killing (tobramycin [4]): 4 µg/mL | minimum concentration of killing (tobramycin [6]): 4 µg/mL

Pseudomonas aeruginosa clinical isolate F1748
minimum concentration of killing (colistin [1]): 256 µg/mL | minimum concentration eradicating biofilm below detection limit (tobramycin [3]): 256 µg/mL | minimum concentration of killing (tobramycin [4]): 4 µg/mL | minimum concentration of killing (tobramycin [5]): 16 µg/mL | minimum concentration of killing (tobramycin [6]): 16 µg/mL | minimum concentration of killing (colistin [7]): 256 µg/mL | minimum concentration of killing (colistin [8]): 256 µg/mL

Pseudomonas aeruginosa clinical isolate F1801
minimum concentration of killing (colistin [1]): 256 µg/mL | minimum concentration eradicating biofilm below detection limit (tobramycin [3]): 256 µg/mL | minimum concentration of killing (tobramycin [4]): ≤ 1 µg/mL | minimum concentration of killing (tobramycin [5]): 256 µg/mL | minimum concentration of killing (tobramycin [6]): 4 µg/mL | minimum concentration of killing (colistin [7]): 256 µg/mL | minimum concentration of killing (colistin [8]): 256 µg/mL

Pseudomonas aeruginosa clinical isolate F1883
minimum concentration of killing (colistin [1]): 1020 µg/mL | minimum concentration eradicating biofilm below detection limit (colistin [2]): 1020 µg/mL | minimum concentration of killing (tobramycin [4]): 64 µg/mL | minimum concentration of killing (tobramycin [6]): 256 µg/mL | minimum concentration of killing (colistin [7]): 16 µg/mL | minimum concentration of killing (colistin [8]): 256 µg/mL

Pseudomonas aeruginosa clinical isolate F1894
minimum concentration of killing (colistin [1]): 256 µg/mL | minimum concentration eradicating biofilm below detection limit (colistin [2]): 256 µg/mL | minimum concentration eradicating biofilm below detection limit (tobramycin [3]): 256 µg/mL | minimum concentration of killing (tobramycin [4]): 4 µg/mL | minimum concentration of killing (tobramycin [6]): 16 µg/mL | minimum concentration of killing (colistin [7]): 256 µg/mL | minimum concentration of killing (colistin [8]): 256 µg/mL

Pseudomonas aeruginosa clinical isolate F1997
minimum concentration eradicating biofilm below detection limit (tobramycin [3]): > 1020 µg/mL | minimum concentration of killing (tobramycin [4]): 16 µg/mL | minimum concentration of killing (tobramycin [5]): 1020 µg/mL | minimum concentration of killing (tobramycin [6]): 64 µg/mL

Pseudomonas aeruginosa clinical isolate F2026
minimum concentration of killing (colistin [1]): 256 µg/mL | minimum concentration eradicating biofilm below detection limit (colistin [2]): 256 µg/mL | minimum concentration eradicating biofilm below detection limit (tobramycin [3]): > 1020 µg/mL | minimum concentration of killing (tobramycin [5]): > 1020 µg/mL | minimum concentration of killing (tobramycin [6]): 256 µg/mL | minimum concentration of killing (colistin [7]): 256 µg/mL | minimum concentration of killing (colistin [8]): 256 µg/mL

Pseudomonas aeruginosa clinical isolate F2029
minimum concentration of killing (colistin [1]): 256 µg/mL | minimum concentration eradicating biofilm below detection limit (colistin [2]): 256 µg/mL | minimum concentration eradicating biofilm below detection limit (tobramycin [3]): 256 µg/mL | minimum concentration of killing (tobramycin [5]): 256 µg/mL | minimum concentration of killing (colistin [7]): 256 µg/mL | minimum concentration of killing (colistin [8]): 256 µg/mL

Pseudomonas aeruginosa clinical isolate F2030
minimum concentration of killing (colistin [1]): 256 µg/mL | minimum concentration eradicating biofilm below detection limit (colistin [2]): 256 µg/mL | minimum concentration of killing (tobramycin [5]): 1020 µg/mL | minimum concentration of killing (colistin [7]): 64 µg/mL | minimum concentration of killing (colistin [8]): 256 µg/mL

Pseudomonas aeruginosa clinical isolate F2034
minimum concentration of killing (colistin [1]): 256 µg/mL | minimum concentration eradicating biofilm below detection limit (colistin [2]): 256 µg/mL | minimum concentration of killing (colistin [7]): 64 µg/mL | minimum concentration of killing (colistin [8]): 64 µg/mL

Pseudomonas aeruginosa clinical isolate F2035
minimum concentration of killing (colistin [1]): 256 µg/mL | minimum concentration eradicating biofilm below detection limit (colistin [2]): 1020 µg/mL | minimum concentration of killing (colistin [7]): 64 µg/mL | minimum concentration of killing (colistin [8]): 64 µg/mL

Pseudomonas aeruginosa clinical isolate F2044
minimum concentration eradicating biofilm below detection limit (colistin [2]): 256 µg/mL

Pseudomonas aeruginosa clinical isolate F2045
minimum concentration eradicating biofilm below detection limit (colistin [2]): > 1020 µg/mL

Pseudomonas aeruginosa clinical isolate F2059
minimum concentration eradicating biofilm below detection limit (colistin [2]): 256 µg/mL

From the supplement of paper PMC8920030
